{"source": "paper PMC7449217", "about": "“The FDA-Approved Drug Nelfinavir Inhibits Lytic Cell-Free but Not Cell-Associated Nonlytic Transmission of Human Adenovirus” (Antimicrobial Agents and Chemotherapy, 2020)", "key": {"HSV-1-CMV-GFP": {"tested_on": "HSV-1-CMV-GFP", "assay": "fluorescence-based plaque-forming assay, A549 cells", "assay_type": "cell-based, herpes simplex virus 1", "procedure": "(§1) Per 96-well plate, 15,000 A549 cells, 10,000 HeLa cells, 30,000 HBECs, 30,000 HCE cells, or 30,000 CMT-93 cells were seeded in 100 μl of the respective supplemented medium and allowed to settle for 1 h at room temperature (RT) prior to cell culture incubation at 37°C with 5% CO2 and 95% humidity. The following day, the medium was replaced with 50 μl of the respective virus stock dilution giving rise to 5 to 50 plaques per 96-well plate. Fifty microliters of nelfinavir to obtain a 0.1 to 50 μM final concentration or the DMSO solvent control was also added, both in supplemented medium. For each experiment, a noninfected, treated control was performed. […] Plates were imaged on either an IXM-XL or an IXM-C automated high-throughput fluorescence microscope (Molecular Devices, San Jose, CA, USA) using a 4× objective in wide-field mode. Hoechst staining was recorded in the 4′,6-diamidino-2-phenylindole (DAPI) channel, the fluorescein isothiocyanate (FITC)/GFP channel was acquired for viral GFP, and the tetramethyl rhodamine isothiocyanate (TRITC)/Texas Red channel was acquired for hexon immunofluorescence staining.\nThe infection phenotype for each well was quantified using Plaque2.0 ([101]). The number of plaques was determined based on the infection signal (viral GFP or hexon immunofluorescence staining). […] The mean TI50 was calculated as the EC50/TC50 ratio of the means. […]"}, "uninfected A549 cells": {"tested_on": "uninfected A549 cells", "assay": "cellular impedance measurement (xCELLigence), nelfinavir toxicity", "assay_type": "cell-based, human", "procedure": "(§2) Impedance-based assays were performed using the xCELLigence system (Roche Applied Science and ACEA Biosciences) as described previously ([152], [153]), according to the manufacturer’s instructions ([177]), in a cell culture environment (37°C, 5% CO2, and 95% humidity) in duplicates. The 16-well E plates have a gold-plated sensor array embedded in their glass bottom by which the electrical impedance across each well bottom is measured. The impedance per well, termed the cell index (CI), is recorded as a dimensionless quantity. The background CI was assessed following the addition of 50 μl supplemented medium to each well and equilibration in the incubation environment. After 30 min of equilibration, 9,000 A549 cells in 50 μl supplemented medium were added per well, and measurement was started.\nFor the quantification of nelfinavir toxicity, 50 μl of the supernatant was removed 18 h later and replaced with 2-fold-concentrated nelfinavir or DMSO solvent as the control dilution in supplemented medium (final nelfinavir concentration of 0.4 to 100 μM in 100 μl/well). The control was supplemented medium. Impedance was recorded every 15 min over 5 days. The TC50 indicates the concentration of nelfinavir that caused a 50% impedance reduction compared to the solvent-treated cells. The TC50 was calculated by nonlinear regression of the solvent-normalized CI over the concentration of nelfinavir."}, "A549 cells": {"tested_on": "A549 cells", "assay": "TC50, number of nuclei in noninfected treated cells", "assay_type": "cell-based, human", "procedure": "as §1, with “performed. For uphill plaque assays, the medium volume was increased to 150 μl with identical virus and drug concentrations. For wash-in/washout experiments, the virus was incubated on cells in supplemented medium for 1 h at 37°C, cells were washed with PBS, and a 100-μl drug dilution in supplemented medium was added. All experiments were performed in four technical replicates or as indicated. Cells were incubated under standard cell culture conditions. At the indicated times postinfection, the cells were fixed, and the nuclei were stained for 1 h at RT by the addition of 33 μl 16% (wt/vol) paraformaldehyde (PFA) and 4 μg/ml Hoechst 33342 (Sigma-Aldrich, St. Louis, MO, USA) in PBS. Cells were washed three times with PBS and stored in PBS supplemented with 0.02% N3 for infections with viruses harboring a GFP transgene. For wild-type (wt) viruses, cells were quenched in PBS supplemented with 50 mM NH4Cl, permeabilized using 0.2% (vol/vol) Triton X-100 in PBS, and blocked with 0.5% (wt/vol) bovine serum albumin (BSA) in PBS.” for “performed.”\nThe infection phenotype for each well was quantified using Plaque2.0 ([101]). The number of plaques was determined based on the infection signal (viral GFP or hexon immunofluorescence staining). […] Data were plotted, and the EC50 (infected and treated cells), the TC50 (noninfected, treated cells), as well as the corresponding standard errors (SE) were determined using curve fitting in GraphPad (version 8.1.2; GraphPad Software, Inc.) using three-parameter inhibitor concentration-versus-response nonlinear regression. The mean TI50 was calculated as the […] ratio of the means. The TI50 SE was calculated by error propagation."}, "HIV aspartyl protease": {"tested_on": "HIV aspartyl protease", "set-up": "method as in PMID 9397180, PMID 9725550", "details": "cited from earlier work"}, "HAdV-C2-dE3B-GFP": {"tested_on": "HAdV-C2-dE3B-GFP", "set-up": "method as in earlier work", "details": "A549, 1.25 μM compound, normalized to neg. ctr., cited from earlier work"}, "[1]": {"tested_on": "HAdV-C2-dE3B-GFP-infected A549 cells", "assay": "cellular impedance measurement (xCELLigence) of infected A549 cells, delay of cell death", "assay_type": "cell-based, human", "details": "100 μM nelfinavir", "procedure": "as §2\nFor the quantification of nelfinavir effects on the cytopathogenicity of HAdV-C2-dE3B-GFP compared to HAdV-C2-dE3B-GFP-dADP infection, 50 μl of the supernatant was removed 18 h later and replaced with nelfinavir- and virus-supplemented medium. […] The delay of infection-induced cytotoxicity was calculated as the time point at which the CI of the infected cells had decreased by 50% relative to its maximum. […]"}}, "note": "Counter-ions that a name gives are not always drawn. Like-named read-outs stand apart in the source and are kept apart here.", "data": [{"smiles": "Cc1c(O)cccc1C(=O)N[C@@H](CSc1ccccc1)[C@H](O)CN1C[C@H]2CCCC[C@H]2C[C@H]1C(=O)NC(C)(C)C", "note": "[Nelfinavir, Nelfinavir mesylate]", "values": [{"measurement": "TI50 (TC50/IC50)", "setting": "HSV-1-CMV-GFP; HSV-1-CMV-GFP in A549, 1 dpi, GFP", "value": 17.25}, {"measurement": "EC50", "setting": "HSV-1-CMV-GFP; Human alphaherpesvirus 1, A549", "value": 2.87, "unit": "µM"}, {"measurement": "toxicity in cell index (CI) profiles", "setting": "uninfected A549 cells; uninfected A549, up to 6.25 µM, more than 4 days of incubation", "value": "little signs of toxicity"}, {"measurement": "median toxicity TC50 (cell impedance)", "setting": "uninfected A549 cells; uninfected A549 cells, incubation up to 115 h, xCELLigence", "value": 25.7, "unit": "µM"}, {"measurement": "TC50", "setting": "A549 cells; human, 1 days", "value": 49.50, "unit": "µM"}, {"measurement": "TC50 (50% loss of cell nuclei)", "setting": "A549 cells; human, 82 h", "value": 10.01, "unit": "µM"}, {"measurement": "TC50", "setting": "A549 cells; human, 6 days", "value": 19.08, "unit": "µM"}, {"measurement": "TC50", "setting": "A549 cells; noninfected A549, nuclei, 3 dpi, line HAdV-C5", "value": 11.91, "unit": "µM"}, {"measurement": "inhibitory concentration", "setting": "HIV aspartyl protease", "value": "low-nanomolar range"}, {"measurement": "Normalized mean read-outs: Infected nuclei", "setting": "HAdV-C2-dE3B-GFP; analysis EPFL", "value": 0.20}, {"measurement": "Normalized mean read-outs: Infection index", "setting": "HAdV-C2-dE3B-GFP; analysis EPFL", "value": 0.27}, {"measurement": "Normalized mean read-outs: Nuclei", "setting": "HAdV-C2-dE3B-GFP; analysis EPFL", "value": 0.74}, {"measurement": "Normalized mean read-outs: Plaques", "setting": "HAdV-C2-dE3B-GFP; analysis EPFL", "value": 0.00}, {"measurement": "Normalized mean read-outs: Virus intensity", "setting": "HAdV-C2-dE3B-GFP; analysis EPFL", "value": 0.33, "unit": "AU"}, {"measurement": "Normalized mean read-outs: Infected nuclei", "setting": "HAdV-C2-dE3B-GFP; analysis UZH", "value": 0.20}, {"measurement": "Normalized mean read-outs: Infection index", "setting": "HAdV-C2-dE3B-GFP; analysis UZH", "value": 0.23}, {"measurement": "Normalized mean read-outs: Nuclei", "setting": "HAdV-C2-dE3B-GFP; analysis UZH", "value": 0.85}, {"measurement": "Normalized mean read-outs: Plaques", "setting": "HAdV-C2-dE3B-GFP; analysis UZH", "value": 0.0274}, {"measurement": "Normalized mean read-outs: Virus intensity", "setting": "HAdV-C2-dE3B-GFP; analysis UZH", "value": 0.30, "unit": "AU"}, {"measurement": "toxicity in impedance measurement of infected cells", "setting": "[1]", "value": "toxic"}]}]}
